Reference: publication PMC8445441, “Elucidating the mechanism by which synthetic helper peptides sensitize Pseudomonas aeruginosa to multiple antibiotics” (PLoS Pathogens, 2021)
Read-outs that look alike come from different tables or passages of the source.

How the values were obtained:
[1] = tested on: clinical P. aeruginosa isolates; assay: microbe, parasite or virus in culture; settings: Pseudomonas aeruginosa, 18 h, antibiotic alone
Outline: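 MIC is the lowest drug concentration showing no visible growth after 18 h at 37 °C. Two-fold dilutions in MHB were combined with an equal volume of bacterial suspension (about 1 × 10^6 CFU/mL), following CLSI broth microdilution, in triplicate.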

[2] = tested on: P. aeruginosa AUMC-Pa-6; assay: microbe, parasite or virus in culture; settings: strain AUMC-Pa-6; for FICI: antibiotic + D-11 (MICb/MICbc 64/4); for MICa: MIC of the antibiotic: antibiotic alone; for MICa: MIC of the antibiotic / MICac: MIC of the antibiotic in the combination: unit not given; for MICac: MIC of the antibiotic in the combination: with D-11 at MICbc 4
Outline: (§1)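 CLSI broth dilution; MHB; ~1 × 10^6 CFU/mL suspension mixed equal volume with drug; 37 °C for 18 h; visual read; triplicate. Broth sometimes supplemented with PG, PE, PC, CL, LPS, MgCl2, CaCl2 or PAβN.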

[3] = tested on: P. aeruginosa AUMC-Pa-4; assay: microbe, parasite or virus in culture; settings: strain AUMC-Pa-4; for FICI: antibiotic + D-11 (MICb/MICbc 128/4); for MICa: MIC of the antibiotic: antibiotic alone; for MICa: MIC of the antibiotic / MICac: MIC of the antibiotic in the combination: unit not given; for MICac: MIC of the antibiotic in the combination: with D-11 at MICbc 4
Outline: as §1

[4] = tested on: P. aeruginosa AUMC-Pa-5; assay: microbe, parasite or virus in culture; settings: for FICI: antibiotic + D-11 (MICb/MICbc 64/4); for MICac: MIC of the antibiotic in the combination: with D-11 at MICbc 4
Outline: as §1

[5] = tested on: P. aeruginosa PAO1; assay: microbe, parasite or virus in culture; settings: PAO1; for MIC: Pseudomonas aeruginosa, PAO1, 18 h, read-out: MICa: the MIC of antibiotics, S3 Table, antibiotic alone; for FICI / MICac: the MIC for the antibiotic in the combination: S3 Table
Outline: as §1

[6] = tested on: P. aeruginosa AUMC-Pa-3; assay: microbe, parasite or virus in culture; settings: for FICI: antibiotic + D-11 (MICb/MICbc 128/4); for MICac: MIC of the antibiotic in the combination: with D-11 at MICbc 4
Outline: as §1

[7] = tested on: P. aeruginosa PAK; assay: microbe, parasite or virus in culture; design: MICa: MIC of the antibiotic / MICac: MIC of the antibiotic in the combination: unit not given beside the values; settings: strain PAK; for FICI: antibiotic + D-11 (MICb/MICbc 64/4); for MICa: MIC of the antibiotic: antibiotic alone; for MICa: MIC of the antibiotic / MICac: MIC of the antibiotic in the combination: unit not given; for MICac: MIC of the antibiotic in the combination: with D-11 at MICbc 4
Outline: as §1

[8] = tested on: P. aeruginosa ATCC27853; assay: microbe, parasite or virus in culture; design: MICa: MIC of the antibiotic / MICac: MIC of the antibiotic in the combination: unit not given beside the values; settings: strain ATCC27853; for FICI: antibiotic + D-11 (MICb/MICbc 32/4); for MICa: MIC of the antibiotic: antibiotic alone; for MICa: MIC of the antibiotic / MICac: MIC of the antibiotic in the combination: unit not given; for MICac: MIC of the antibiotic in the combination: with D-11 at MICbc 4
Outline: as §1

[9] = tested on: P. aeruginosa NR-31041; assay: microbe, parasite or virus in culture; design: MICa: MIC of the antibiotic / MICac: MIC of the antibiotic in the combination: unit not given beside the values; settings: strain NR-31041; for FICI: antibiotic + D-11 (MICb/MICbc 64/4); for MICa: MIC of the antibiotic: antibiotic alone; for MICa: MIC of the antibiotic / MICac: MIC of the antibiotic in the combination: unit not given; for MICac: MIC of the antibiotic in the combination: with D-11 at MICbc 4
Outline: as §1

[10] = tested on: P. aeruginosa NR-31040; assay: microbe, parasite or virus in culture; design: MICa: MIC of the antibiotic / MICac: MIC of the antibiotic in the combination: unit not given beside the values; settings: for FICI: antibiotic + D-11 (MICb/MICbc 128/4); for MICac: MIC of the antibiotic in the combination: with D-11 at MICbc 4
Outline: as §1

[11] = tested on: P. aeruginosa PA14; assay: microbe, parasite or virus in culture; design: MICa: MIC of the antibiotic / MICac: MIC of the antibiotic in the combination: unit not given beside the values; settings: strain PA14; for FICI: antibiotic + D-11 (MICb/MICbc 128/4); for MICa: MIC of the antibiotic: antibiotic alone; for MICa: MIC of the antibiotic / MICac: MIC of the antibiotic in the combination: unit not given; for MICac: MIC of the antibiotic in the combination: with D-11 at MICbc 4
Outline: as §1

[12] = tested on: P. aeruginosa AUMC-Pa-2; settings: strain AUMC-Pa-2; antibiotic + D-11 (MICb/MICbc 64/4)
Outline: as §1

[13] = tested on: P. aeruginosa AUMC-Pa-1; settings: strain AUMC-Pa-1; antibiotic + D-11 (MICb/MICbc 128/4)
Outline: as §1

[14] = tested on: P. aeruginosa HM-214; settings: strain HM-214; antibiotic + D-11 (MICb/MICbc 128/4)
Outline: as §1

[15] = read-out: Antibiotic sensibility (MIC) of clinical P. aeruginosa isolate AUMC-Pa-1, strain AUMC-Pa-1
[16] = read-out: Antibiotic sensibility (MIC) of clinical P. aeruginosa isolate AUMC-Pa-2, strain AUMC-Pa-2
[17] = read-out: Antibiotic sensibility (MIC) of clinical P. aeruginosa isolate AUMC-Pa-3, strain AUMC-Pa-3
[18] = read-out: Antibiotic sensibility (MIC) of clinical P. aeruginosa isolate AUMC-Pa-4, strain AUMC-Pa-4
[19] = read-out: Antibiotic sensibility (MIC) of clinical P. aeruginosa isolate AUMC-Pa-5, strain AUMC-Pa-5
[20] = read-out: Antibiotic sensibility (MIC) of clinical P. aeruginosa isolate AUMC-Pa-6, strain AUMC-Pa-6
[21] = read-out: Antibiotic sensibility (MIC) of clinical P. aeruginosa isolate HM-214, strain HM-214
[22] = read-out: Antibiotic sensibility (MIC) of clinical P. aeruginosa isolate NR-31040, strain NR-31040
[23] = read-out: Antibiotic sensibility (MIC) of clinical P. aeruginosa isolate NR-31041, strain NR-31041
[24] = strain AUMC-Pa-5, unit not given
[25] = strain AUMC-Pa-3, unit not given
[26] = strain NR-31040, unit not given

SMILES: C[C@@H](O)[C@H]1C(=O)N2C(C(=O)O)=C(S[C@@H]3CN[C@H](C(=O)N(C)C)C3)[C@H](C)[C@H]12 [Meropenem]
- MIC [1, 15]: 1 µM
- MIC [1, 16]: 1 µM
- MIC [1, 17]: 0.25 µM
- MIC [1, 18]: 2 µM
- MIC [1, 19]: 0.25 µM
- MIC [1, 20]: 2 µM
- MIC [1, 21]: 0.25 µM
- MIC [1, 22]: 2 µM
- MIC [1, 23]: 4 µM
- FICI [2]: 2.063
- MICa: MIC of the antibiotic [2]: 2
- MICac: MIC of the antibiotic in the combination [2]: 4
- FICI [3]: 1.031
- MICa: MIC of the antibiotic [3]: 2/2
- MICac: MIC of the antibiotic in the combination [3]: 2/2
- MIC ([4]; Pseudomonas aeruginosa, AUMCPA5, 18 h, read-out: MICa: MIC of the antibiotic): 0.25 µM
- FICI ([4]; strain AUMC-Pa-5): 2.063
- MICac: MIC of the antibiotic in the combination [4, 24]: 0.5
- MIC [5]: 2 µM
- FICI ([5]; antibiotic + 4 μM D-11): 0.375
- MICac: the MIC for the antibiotic in the combination ([5]; with 2 μM D-11): 1 µM
- MICac: the MIC for the antibiotic in the combination ([5]; with 4 μM D-11): 0.5 µM
- MIC ([6]; Pseudomonas aeruginosa, AUMCPA3, 18 h, read-out: MICa: MIC of the antibiotic): 0.25 µM
- FICI ([6]; strain AUMC-Pa-3): 1.031
- MICac: MIC of the antibiotic in the combination [6, 25]: 0.25/0.25
- FICI [7]: 1.063
- MICa: MIC of the antibiotic [7]: 1/1
- MICac: MIC of the antibiotic in the combination [7]: 1/1
- FICI [8]: 1.125
- MICa: MIC of the antibiotic [8]: 1/1
- MICac: MIC of the antibiotic in the combination [8]: 1/1
- FICI [9]: 0.563
- MICa: MIC of the antibiotic [9]: 4
- MICac: MIC of the antibiotic in the combination [9]: 2
- FICI ([10]; strain NR-31040): 0.531
- MICa: MIC of the antibiotic ([10]; strain NR-31040, antibiotic alone, unit not given): 2
- MICac: MIC of the antibiotic in the combination [10, 26]: 1
- FICI [11]: 1.031
- MICa: MIC of the antibiotic [11]: 2/2
- MICac: MIC of the antibiotic in the combination [11]: 2/2
- FICI [12]: 2.063
- FICI [13]: 1.031
- FICI [14]: 1.031

SMILES: CN(C)c1ccc(O)c2c1C[C@H]1C[C@H]3[C@H](N(C)C)C(O)=C(C(N)=O)C(=O)[C@@]3(O)C(O)=C1C2=O [Minocycline]
- MIC [1, 15]: 32 µM
- MIC [1, 16]: 8 µM
- MIC [1, 17]: 16 µM
- MIC [1, 18]: 16 µM
- MIC [1, 19]: 16 µM
- MIC [1, 20]: 16 µM
- MIC [1, 21]: 16 µM
- MIC [1, 22]: 16 µM
- MIC [1, 23]: 16 µM
- FICI [2]: 0.313
- MICa: MIC of the antibiotic [2]: 16
- MICac: MIC of the antibiotic in the combination [2]: 4
- FICI [3]: 0.156
- MICa: MIC of the antibiotic [3]: 16
- MICac: MIC of the antibiotic in the combination [3]: 2
- FICI ([4]; strain AUMC-Pa-5): 1.063
- MICa: MIC of the antibiotic ([4]; strain AUMC-Pa-5, antibiotic alone, unit not given): 16/16
- MICac: MIC of the antibiotic in the combination [4, 24]: 16/16
- MIC [5]: 16 µM
- FICI ([5]; antibiotic + 2 μM D-11): 0.094
- FICI ([5]; antibiotic + 4 μM D-11): 0.141
- MICac: the MIC for the antibiotic in the combination ([5]; with 2 μM D-11): 0.5 µM
- MICac: the MIC for the antibiotic in the combination ([5]; with 4 μM D-11): 0.25 µM
- FICI ([6]; strain AUMC-Pa-3): 0.156
- MICa: MIC of the antibiotic ([6]; strain AUMC-Pa-3, antibiotic alone, unit not given): 16
- MICac: MIC of the antibiotic in the combination [6, 25]: 2
- FICI [7]: 0.125
- MICa: MIC of the antibiotic [7]: 16
- MICac: MIC of the antibiotic in the combination [7]: 1
- FICI [8]: 0.188
- MICa: MIC of the antibiotic [8]: 16
- MICac: MIC of the antibiotic in the combination [8]: 1
- FICI [9]: 0.188
- MICa: MIC of the antibiotic [9]: 16
- MICac: MIC of the antibiotic in the combination [9]: 2
- MIC ([10]; Pseudomonas aeruginosa, NR31040, 18 h, read-out: MICa: MIC of the antibiotic): 16 µM
- FICI ([10]; strain NR-31040): 0.063
- MICac: MIC of the antibiotic in the combination [10, 26]: 0.5
- FICI [11]: 0.156
- MICa: MIC of the antibiotic [11]: 16
- MICac: MIC of the antibiotic in the combination [11]: 2
- FICI [12]: 0.313
- FICI [13]: 0.094
- FICI [14]: 0.094
